We go through 19 molecules from US20250320204A1 (RIBOSCIENCE LLC, priority 2023, published 2025).

Molecules are shown by their SMILES.

The target of test [1] is T1, ENPP1 (Homo sapiens, UniProt P22413).
T1 sequence (P22413 1-925): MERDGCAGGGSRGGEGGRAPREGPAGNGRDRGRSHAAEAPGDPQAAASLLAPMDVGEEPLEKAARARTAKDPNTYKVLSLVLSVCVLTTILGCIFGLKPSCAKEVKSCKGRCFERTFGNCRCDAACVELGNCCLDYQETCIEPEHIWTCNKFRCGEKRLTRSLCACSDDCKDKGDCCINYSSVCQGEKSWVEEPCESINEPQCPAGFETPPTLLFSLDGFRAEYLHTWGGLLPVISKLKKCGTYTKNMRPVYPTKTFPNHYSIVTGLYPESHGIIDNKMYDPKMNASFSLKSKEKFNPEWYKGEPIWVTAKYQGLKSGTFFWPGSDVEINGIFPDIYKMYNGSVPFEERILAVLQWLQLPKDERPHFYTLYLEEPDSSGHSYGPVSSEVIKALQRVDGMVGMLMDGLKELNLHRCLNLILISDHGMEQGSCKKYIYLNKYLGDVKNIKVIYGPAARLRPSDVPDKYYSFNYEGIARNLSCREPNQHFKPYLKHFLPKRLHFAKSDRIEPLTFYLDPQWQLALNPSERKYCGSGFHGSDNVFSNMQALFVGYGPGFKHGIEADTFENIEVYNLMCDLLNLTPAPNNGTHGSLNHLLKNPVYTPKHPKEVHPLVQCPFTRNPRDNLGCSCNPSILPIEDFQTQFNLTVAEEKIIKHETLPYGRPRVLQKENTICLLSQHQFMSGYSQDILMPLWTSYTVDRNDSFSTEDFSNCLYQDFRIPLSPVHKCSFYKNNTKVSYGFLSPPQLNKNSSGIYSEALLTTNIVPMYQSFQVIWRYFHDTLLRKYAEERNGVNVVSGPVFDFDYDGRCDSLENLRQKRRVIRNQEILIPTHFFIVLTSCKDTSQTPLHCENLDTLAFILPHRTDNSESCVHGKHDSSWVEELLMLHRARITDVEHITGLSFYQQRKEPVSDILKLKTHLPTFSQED
Put plainly: Measurement of pNP-TMP hydrolysis by ENPP1. The conditions noted are these: pNP-TMP substrate 500 μM, Km 232 μM; Ki from IC50 by Cheng-Prusoff. Type of test: biochemical. As for the experimental part: Measurement of pNP-TMP hydrolysis by ENPP1
p-Nitrophenyl thymidine 5′-monophosphate (pNP-TMP) is a synthesized substrate for ENPP1. The ENPP1 enzyme activity assay with pNP-TMP substrate was conducted as follows:
First, in a 60 μl reaction, 7.5 ng purified ENPP1 was mixed with 1.2 μl compounds of Formula (I) (test compound) ranging from 13.7 nM to 10 μM. Incubation of ENPP1 with compounds was set at 25° C. for 10 min. Reactions with DMSO only (with ENPP1 but no compound) gave the fastest reaction (MAX Activity). For each compound dilution, wells with assay buffer (50 mM Tris -HCl, pH8.8, 250 mM NaCl, 0.1 mg/ml BSA) and test compounds but no ENPP1 were included as controls for the subtraction of test compound derived absorbance at 405 nm.
Second, after 10 minutes incubation of ENPP1 and test compound, the assay was initiated by transferring 50 μl of the above mentioned ENPP1/test compound reaction into 50 μl of 1 mM pNP-TMP in assay buffer results in a 100 μl total reaction in non-binding surface clear bottom 96 well plates. Absorbance at 405 nm was recorded immediately in kinetic mode by PerkinElmer 2300 Enspire multimode plate reader.
For each inhibitor, the specific ENPP1 activity was calculated using the following equation: ENPP1 activity (pmol/min/μg)=Adjusted Vmax (OD405 nm/min) X conversion factor (pmol/OD405 nm)/amount of enzyme (μg)
Adjusted Vmax=V0X (Km+(S))/(S). In this assay, Km=232 μM, (S)=500 μM. Adjusted Vmax=1.464 X V0.
V0=(OD405 nm with ENPP1-OD405 nm ENPP1 blank)/minutes. OD405 nm was plotted, with blank subtracted, against time (minutes), the initial linear rate is V0.
The conversion factor (pmol/OD405 nm), was determined by plotting the amount of standard, 4-Nitrophenol (Sigma -Aldrich, Catalog #241326), against absorbance at 405 nm. The slope is the conversion factor. The percent ENPP1 activity for each sample was calculated using the following equation: […]
To determine the IC50 for each compound, compound concentration values and percent enzyme activity values were inserted into GraphPad Prism (GraphPad Prism version 9.0 for Windows, GraphPad Software, La Jolla California USA, www.graphpad.com), and Prism's Transform analysis was used to convert the x-axis values (compound concentration) to logarithms. A sigmoidal variable slope nonlinear regression analysis was performed using the following equation: Y=Bottom+ (Top-Bottom)/(1+10^((Log IC50″X) *HillSlope)).
Ki values for each compound were calculated from the observed IC50 from GraphPad analysis using the Cheng-Prusoff equation: Ki=IC50/(1+(S)/KM). (S) here is 500 μM and KM is determined to be 232 μM.

Test [2] concerns the target T1, ENPP1. The experiment in a line: Measurement of 2′3′-cGAMP hydrolysis by ENPP1 (AMP-Glo). Type of test: biochemical. The note with it: 2′3′-cGAMP substrate 100 μM, KM 32 μM; Ki from IC50 by Cheng-Prusoff. As for the experimental part: Measurement of 2′3′-cGAMP hydrolysis by ENPP1
The AMP-Glo assay kit from Promega (catalog number V5012) was used for measurement of 5′-AMP production.
First, an ENPP1 and test compound incubation was set up in assay buffer (50 mM Tris -HCl, pH8.8, 250 mM NaCl, 0.1 mg/ml BSA) with following conditions: ENPP1 concentration: 1.25 nM; test compound concentration ranging from 137 pM to 100 nM. The incubation was carried out at 25° C. for 10 min.
Second, after the 10-minute incubation of ENPP1 and test compound, prepare on a separate plate, 15 μl of the substrate 2′3′-cGAMP at 200 μM in assay buffer. Then, 15 μl of the ENPP1/Compound incubation was transferred to the 200 μM 2′3′-cGAMP solution to initiate the reaction. The 30 μl mixture was incubated for 30 min at 25° C. In all these assays a DMSO control without compound was included which gave the maximum 5′-AMP production (MAX RLU). After 30 min the reaction was stopped by heating at 90° C. for 3 min.
Third, the Promega AMP-Glo kit was used to detect 5′-AMP production as a measurement of ENPP1 enzyme activity. Briefly, 10 μl of the above mentioned 30 μl total reaction per sample was transferred into 384 well white solid assay plate for measurement of 5′-AMP production. For each well, 10 μl of AMP-Glo Reagent I was added, mixed well, and incubated for 1 hour at 25° C. At this time AMP detection solution was prepared and 20 μl was added per well, and the resulting solution was incubated for 1 hr at 25° C. Duplicates were run for each inhibitor concentration. Luminescence signal (relative luminescence units, RLU) was recorded using a PerkinElmer 2300 Enspire multimode plate reader.
The % inhibition was calculated using the following equation: % inhibition=(MAX RLU-sample RLU)/MAX RLU X 100%.
IC50 values of compounds were determined by loading compound concentration data and percent inhibition values into GraphPad Prism (GraphPad Prism version 7.0 for
Windows, GraphPad Software, La Jolla California USA, www.graphpad.com) and conducted a Sigmoidal variable slope nonlinear regression fitting.
Ki values for each compound were calculated from the observed IC50 from GraphPad analysis using the Cheng-Prusoff equation: Ki=IC50/(1+ (S)/KM). (S) here is 100μ M and KM is 32 μm.

As for `C[S@](=N)(=O)CC1(O)CCN(c2ccnc3c(OCF)nccc23)CC1` (single isomer, unassigned) [Example 49], the values for the inhibition constant (Ki) at ENPP1 [1] and at ENPP1 [2] were under 10 nM and under 1 nM, respectively.

With `C[S@](=N)(=O)c1cccc(COc2ccnc3c(OCF)nccc23)c1` (single isomer, unassigned) [Example 79], the inhibition constant (Ki) at ENPP1 [1] is under 10 nM; on ENPP1 [2] it was under 1 nM.

Consider `N=S(=O)(c1cc(F)cc(COc2ccnc3c(OCF)nccc23)c1)C1CC1` (centres unmarked) [Example 69, cyclopropyl(3-fluoro-5-(((8-(fluoromethoxy)-1,7-naphthyridin-4-yl)oxy)-methyl)phenyl) (imino)-lambda6-sulfanone], for which the values for the Ki at ENPP1 [1] and on ENPP1 [2] were under 10 nM and under 1 nM, respectively.

Consider `COc1nccc2c(OCc3cc(F)cc([S@@](=N)(=O)C4CC4)c3)ccnc12` (single isomer, unassigned) [Example 67], for which the Ki is under 10 nM at ENPP1 [1] and under 1 nM on ENPP1 [2].

For `CS(=N)(=O)CC1(O)CCN(c2ccnc3c(OCF)nccc23)CC1` (racemic) [Example 47, ((1-(8-(fluoromethoxy)-1,7-naphthyridin-4-yl)-4-hydroxypiperidin-4-yl)methyl) (imino)(methyl)-lambda6-sulfanone], the Ki at ENPP1 [2] is under 1 nM.

For `COc1nccc2c(OCc3cccc([S@@](=N)(=O)C4CC4)c3)ccnc12` [Example 17b, (S)-Cyclopropyl(imino)(3-(((8-methoxy-1,7-naphthyridin-4-yl)oxy)methyl)phenyl)-lamba6-sulfanone], the Ki on ENPP1 [1] is under 10 nM; at ENPP1 [2], under 1 nM.

`COc1nccc2c(OCc3cc(F)cc([S@@](C)(=N)=O)c3)ccnc12` (single isomer, unassigned) [Example 71]: the Ki at ENPP1 [1] is under 10 nM; on ENPP1 [2], under 1 nM.

Take `COc1nccc2c(N3CC4(CC(CS(C)(=N)=O)C4)C3)ncnc12` (single isomer, unassigned) [Example 2a, imino ((2-(8-methoxypyrido[3,4-d]pyrimidin-4-yl)-2-azaspiro[3.3]heptan-6-yl)methyl)(methyl)-lambda6-sulfanone]: the Ki on ENPP1 [1] was under 10 nM; at ENPP1 [2] it was under 1 nM.

On to `CS(=N)(=O)c1cccc(COc2ccnc3c(OCF)nccc23)c1` (racemic) [Example 77, (3-(((8-(fluoromethoxy)-1,7-naphthyridin-4-yl)oxy)methyl)phenyl) (imino)(methyl)-lambda6-sulfanone], for which the Ki at ENPP1 [1] is under 10 nM; on ENPP1 [2], under 1 nM.

For the molecule `N=[S@@](=O)(c1cccc(COc2ccnc3c(OCF)nccc23)c1)C1CC1` (single isomer, unassigned) [Example 43], the Ki on ENPP1 [1] is under 10 nM; on ENPP1 [2], under 1 nM.

For `CS(=N)(=O)c1cccc(COc2ccnc3cnccc23)c1` (centres unmarked) [Example 9], the Ki is under 10 nM at ENPP1 [1] and 1 to 5 nM at ENPP1 [2].

Regarding `COc1nccc2c(OCc3cc(F)cc(S(=N)(=O)C4CC4)c3)ccnc12` (racemic) [Example 66, cyclopropyl(3-fluoro-5-(((8-methoxy-1,7-naphthyridin-4-yl)oxy)methyl)-phenyl) (imino)-lambda6-sulfanone], the Ki at ENPP1 [2] was under 1 nM.

In the case of `CS(=N)(=O)c1cc(F)cc(COc2ccnc3c(OCF)nccc23)c1` (centres unmarked) [Example 72, (3-fluoro-5-(((8-(fluoromethoxy)-1,7-naphthyridin-4-yl)oxy)methyl)phenyl)-(imino)(methyl)-lambda6-sulfanone], at ENPP1 [2], the Ki is under 1 nM.

For the molecule `COc1nccc2c(N3CCC(O)(CS(C)(=N)=O)CC3)ccnc12` (centres unmarked) [Example 25], the Ki on ENPP1 [2] was under 1 nM.

As for `N=S(=O)(c1cccc(COc2ccnc3c(OC4CC4)nccc23)c1)C1CC1` (centres unmarked) [Example 60, (3-(((8-cyclopropoxy-1,7-naphthyridin-4-yl)oxy)methyl)phenyl)-(cyclopropyl) (imino)-lambda6-sulfanone], the inhibition constant (Ki) on ENPP1 [1] was 100 to 10000 nM.

In turn, `COc1nccc2c(Oc3cccc(S(C)(=N)=O)c3)ccnc12` (centres unmarked) [Example 51, imino (3-((8-methoxy-1,7-naphthyridin-4-yl)oxy)phenyl)(methyl)-lambda6-sulfanone] yielded a Ki at ENPP1 [1] of 100 to 10000 nM.

As to `CS(=N)(=O)CC1(O)CCN(c2ccnc3c(OC4CC4)nccc23)CC1` (centres unmarked) [Example 52, ((1-(8-cyclopropoxy-1,7-naphthyridin-4-yl)-4-hydroxypiperidin-4-yl)methyl) (imino)(methyl)-lambda6-sulfanone], the Ki on ENPP1 [1] was in the range of 10 to 100 nM.

In turn, `CC(C)Oc1nccc2c(OCc3cccc(S(=N)(=O)C4CC4)c3)ccnc12` (centres unmarked) [Example 61, cyclopropyl(imino) (3-(((8-isopropoxy-1,7-naphthyridin-4-yl)oxy)methyl)phenyl)-lambda6-sulfanone] came in with a Ki on ENPP1 [1] of 100 to 10000 nM.

`COc1nccc2c(OCc3cccc([S@](=N)(=O)C4CC4)c3)ccnc12` [Example 17a, (R)-Cyclopropyl(imino)(3-(((8-methoxy-1,7-naphthyridin-4-yl)oxy)methyl)phenyl)-lambda6-sulfanone]: the Ki at ENPP1 [1] was 10 to 100 nM.
